pIC50: −log10 of the molar value. Active and inactive are the calls of the source. The calls are words filed in the database; no cut-off is given here.
Columns and labels:
[1] = target: T1, Bile acid receptor (Homo sapiens, UniProt Q96RI1); assay: Inhibition of GW4064-induced fluorecein-labeled SRC2-2 coactivator recruitment in GST-tagged FXR LBD (unknown origin) by Lanthascreen TR-FRET assay
T1 sequence (Q96RI1 whole entry): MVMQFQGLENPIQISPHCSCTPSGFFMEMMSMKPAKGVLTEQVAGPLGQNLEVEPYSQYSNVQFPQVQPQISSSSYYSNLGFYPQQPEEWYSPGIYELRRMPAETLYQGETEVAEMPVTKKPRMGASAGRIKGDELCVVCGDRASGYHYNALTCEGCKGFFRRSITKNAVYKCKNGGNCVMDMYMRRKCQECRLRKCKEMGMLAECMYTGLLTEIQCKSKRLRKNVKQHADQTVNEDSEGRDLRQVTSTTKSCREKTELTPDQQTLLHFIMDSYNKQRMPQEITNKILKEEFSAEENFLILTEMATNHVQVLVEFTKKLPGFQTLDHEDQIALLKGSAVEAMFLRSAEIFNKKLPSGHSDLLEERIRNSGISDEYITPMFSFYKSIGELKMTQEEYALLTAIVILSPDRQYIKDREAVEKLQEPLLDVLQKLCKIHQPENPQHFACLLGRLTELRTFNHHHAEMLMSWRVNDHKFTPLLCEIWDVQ

[2] = Antagonist activity at human FXRalpha expressed in human Hep3B cells assessed as inhibition of CDCA-induced FXR response element driven luciferase activity after 24 hrs; type: cell-based; settings: for pIC50: Homo sapiens, Hep3B, 24 h, read-out: IC50
[3] = target: T2, Bile acid receptor (Homo sapiens) (UniProt Q96RI1); assay: Antagonist activity at FXR in human Hep3B cells assessed as inhibition of CDCA-induced SHP expression level at 0.2 to 5 uM after 24 hrs by RT-PCR method; type: cell-based
T2 sequence (whole entry): T1 sequence (Q96RI1 whole entry)

[4] = target: T3, Retinoic acid receptor RXR-alpha (Homo sapiens) (UniProt P19793); assay: Antagonist activity at human RXRalpha expressed in human Hep3B cells assessed as inhibition of 9-cis-retinoic acid-induced RXR response element driven luciferase activity at 100 uM after 24 hrs; type: cell-based
T3 sequence (whole entry): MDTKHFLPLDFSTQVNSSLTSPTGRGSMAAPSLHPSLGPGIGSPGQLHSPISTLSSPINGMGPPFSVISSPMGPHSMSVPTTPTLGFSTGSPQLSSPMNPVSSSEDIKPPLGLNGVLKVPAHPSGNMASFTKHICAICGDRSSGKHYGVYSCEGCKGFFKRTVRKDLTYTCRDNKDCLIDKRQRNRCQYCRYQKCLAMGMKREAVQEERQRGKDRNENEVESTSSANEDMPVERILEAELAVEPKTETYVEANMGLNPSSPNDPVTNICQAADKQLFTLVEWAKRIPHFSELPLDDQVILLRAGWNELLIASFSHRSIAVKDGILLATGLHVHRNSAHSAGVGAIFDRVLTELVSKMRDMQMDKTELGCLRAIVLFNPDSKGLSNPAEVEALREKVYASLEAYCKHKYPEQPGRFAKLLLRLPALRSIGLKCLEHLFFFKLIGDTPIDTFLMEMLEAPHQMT

[5] = target: T2, Bile acid receptor (Homo sapiens); assay: Antagonist activity at FXR in human Hep3B cells assessed as inhibition of CDCA-induced decrease in CYP7A1 expression level at 0.2 to 5 uM after 24 hrs by RT-PCR method; type: cell-based

Compound	pIC50 [1]	pIC50 [2]	other results
CC(C)C[C@@H](c1nc2ccc(C(=O)O)cc2n1C)N1C(=O)CN(c2ccc(OC3CCCCC3)cc2)C1=O	3.90	4.26	
Cn1c([C@H](Cc2ccccc2)N2C(=O)CN(c3ccc(Oc4ccccc4)cc3)C2=O)nc2ccc(C(=O)O)cc21	4.45	5.19	
CC(C)C[C@@H](c1nc2ccc(C(=O)O)cc2n1C)N1C(=O)CN(c2ccc(Oc3ccc(Cl)cc3)cc2)C1=O	5.59	5.39	
CC(C)[C@@H](c1nc2ccc(C(=O)O)cc2n1C)N1C(=O)CN(c2ccc(Oc3ccccc3)cc2)C1=O	3.76	5.00	
CC(C)C[C@@H](c1nc2ccc(C(=O)O)cc2n1C)N1C(=O)CN(c2cccc(Oc3ccccc3)c2)C1=O	4.74	5.00	
CC(C)C[C@@H](c1nc2ccc(C(=O)O)cc2n1C)N1C(=O)CN(c2ccc(Oc3ccccc3)cc2)C1=O	4.36	5.25	
CC(C)C[C@@H](c1nc2cc(C(=O)O)ccc2n1C)N1C(=O)CN(c2ccc(Oc3ccccc3)cc2)C1=O	3.95	4.74	
C[C@@H](c1nc2ccc(C(=O)O)cc2n1C)N1C(=O)CN(c2ccc(Oc3ccccc3)cc2)C1=O	4.98	< 3.52	
Cc1ccc2nc([C@H](CC3CCCCC3)N3C(=O)CN(c4ccc(Oc5ccccc5)cc4)C3=O)n(C)c2c1	3.90	8.92	inhibition [3]: Active; inhibition [4]: inactive; inhibition [5]: Active
COc1ccc(Oc2ccc(N3CC(=O)N([C@@H](CC(C)C)c4nc5ccc(C(=O)O)cc5n4C)C3=O)cc2)cc1	4.12	5.35	
CC(C)C[C@@H](c1nc2ccc(C(=O)O)cc2n1C)N1C(=O)N(c2ccc(Oc3ccccc3)cc2)C(C)(C)C1=O	3.98	4.61	
CC(C)C[C@@H](c1nc2ccc(C(=O)O)cc2n1C)N1C(=O)CN(c2ccc(F)cc2)C1=O	3.40		IC50 [2]: Not Active
CC[C@H](C)[C@@H](c1nc2ccc(C(=O)O)cc2n1C)N1C(=O)CN(c2ccc(Oc3ccccc3)cc2)C1=O	3.99	5.42	
CC(C)C[C@H](c1nc2ccc(C(=O)O)cc2n1C)N1C(=O)CN(c2ccc(Oc3ccccc3)cc2)C1=O	4.18 to 5.18	4.47	
Cn1c([C@@H](Cc2ccccc2)N2C(=O)CN(c3ccc(Oc4ccccc4)cc3)C2=O)nc2ccc(C(=O)O)cc21	4.06	4.86	
CC(C)C[C@@H](c1nc2ccc(C(=O)O)cc2n1C)N1CC(=O)N(c2ccc(Oc3ccccc3)cc2)CC1=O	3.38		IC50 [2]: Not Active
CC(C)[C@H](c1nc2ccc(C(=O)O)cc2n1C)N1C(=O)CN(c2ccc(Oc3ccccc3)cc2)C1=O	3.93	4.00	
CC[C@@H](c1nc2ccc(C(=O)O)cc2n1C)N1C(=O)CN(c2ccc(Oc3ccccc3)cc2)C1=O	3.68	4.61	
CC(C)C[C@@H](c1nc2ccc(C(=O)O)cc2n1C)N1C(=O)CN(c2ccc(-c3ccccc3)cc2)C1=O	4.64	4.55	
Cc1ccc2nc([C@H](CC(C)C)N3C(=O)CN(c4ccc(Oc5ccccc5)cc4)C3=O)n(C)c2c1	4.18	6.76	
CC(C)C[C@@H](c1nc2ccc(C(=O)O)cc2n1C)N1CCN(c2ccc(Oc3ccccc3)cc2)C1=O	4.55	5.24	
Cn1c([C@H](CC2CCCCC2)N2C(=O)CN(c3ccc(Oc4ccccc4)cc3)C2=O)nc2ccc(C(=O)O)cc21	4.61	5.70	
Cn1c([C@@H](N2C(=O)CN(c3ccc(Oc4ccccc4)cc3)C2=O)C(C)(C)C)nc2ccc(C(=O)O)cc21	4.11	5.20	
C/C=C1\C(=O)C[C@H]2[C@@H]3CCC4=CC(=O)CC[C@]4(C)[C@H]3CC[C@]12C [GUGGULSTERONE]		5.70	
